According to patent publication US10214609B2, “Polyglyoxylates, manufacture and use thereof” (THE UNIVERSITY OF WESTERN ONTARIO, priority 2014, dated 2019):

What was measured:
[1] = Thermogravimetric analysis (TGA) of polymers; format: physicochemical
From the text: Ethyl glyoxylate in toluene solution (50% w/w), phenyl isocyanate, dibutyltin dilaurate (DBTL), benzyl chloroformate, 4-dimethylaminopyridine (DMAP), 4-bromomethyl-3-nitrobenzoic acid, methanesulfonyl chloride and benzyl bromide were obtained from Alfa Aesar (Canada). Fumaric acid and maleic acid were purchased from Acros Organics (USA). 6-Nitroveratryl chloroformate (NVOC-Cl) was obtained from Chem-Impex International, Inc. (USA). Propargyl amine was purchased from AK Scientific, Inc. (USA). 4-(Hydroxymethyl)phenylboronic acid pinacol ester and hydrogen peroxide solution (50 wt %) in water, hydrazine hydrate, dimethyl sulfide, sodium azide (NaN3), tin (II)chloride dehydrate, phosgene solution (15 wt. % in toluene), nile red and poly(ethylene glycol) methyl ether (MW=5000 g/mol, 2000 g/mol and 750 g/mol) were purchased from Sigma-Aldrich (USA). 1-Ethyl-3-(3-dimethylaminopropyl) carbodiimide hydrochloride (EDC.HCl) was purchased from Creo Salus (USA). Thionyl chloride (Alfa Aesar) was distilled under argon prior to use. Triethylamine (Et3N), pyridine, and dichloromethane were distilled from calcium hydride before use. Anhydrous tetrahydrofuran (THF) and N,N-dimethylformamide (DMF) were obtained from a solvent purification system using aluminum oxide columns. All the other chemicals were of reagent grade and used without further purification. ^1H NMR spectra were obtained in CDCl3 at 400 MHz or 600 MHz on Varian Inova instruments. NMR chemical shifts (δ) are reported in ppm and are calibrated against residual solvent signals of CDCl3 (δ 7.27), acetonitrile-d3 (δ 1.94), DMSO-d6 (δ 2.50) or deuterium oxide (δ 4.75). Fourier transform infrared spectra (FT-IR) were obtained using a Bruker tensor 27 instrument with films drop cast from CH2Cl2 on KBr plates. High-resolution mass spectrometry (HRMS) was performed using a Finnigan MAT 8400 electron impact (EI) mass spectrometer. The SEC instrument was equipped with a Viscotek GPC Max VE2001 solvent module. Samples were analyzed using the Viscotek VE3580 RI detector operating at 30° C. The separation technique employed two Agilent Polypore (300×7.5 mm) columns connected in series and to a Polypore guard column (50×7.5 mm). Samples were dissolved in THF (glass distilled grade) in approximately 5 mg/mL concentrations and filtered through 0.22 μm syringe filters. Samples were injected using a 100 μL loop. The THF eluent was filtered and eluted at 1 ml/min for a total of 30 minutes. A calibration curve was obtained from Polystyrene samples with molecular weight ranges of 1,540-1,126,000/mol Differential scanning calorimetry (DSC) and thermogravimetric analysis (TGA) were performed on a Mettler Toledo DSC 822e. For TGA the heating rate was 10° C./min between 50-400° C. under nitrogen. For DSC, the heating/cooling rate was 10° C./min from −100 to +17° C. Glass transition temperatures were obtained from the second heating cycle. Ultrapure water was obtained from a Barnstead EASYpure II system. Dialyses were performed using Spectra/Por regenerated cellulose membranes with 3500 g/mol MWCO.

[2] = NMR degradation study of the micelles; format: physicochemical; details: over 24 h at 37° C., pH 7.4 buffered D2O
Protocol: 16 mg of block copolymer 21 b was fully dissolved in 0.8 mL of DMSO-d6. 0.2 mL of the resulting solution was rapidly injected into 1.0 mL of 100 mM, pH 7.4 phosphate or 100 mM, pH 5.0 citrate buffered D2O. After stirring for 0.5 h, the micelle suspension was transferred into two NMR tubes. One tube was then irradiated for 10 min in with UV light (wavelength: 300-350 nm, 23 mW cm^−2), while the other one was kept in the dark. A ^1H NMR spectrum was obtained immediately following irradiation (10 min time point in the graph), then the samples were incubated at 37° C. and spectra were obtained at regular intervals over 24 h. Complete depolymerization was confirmed for the irradiated sample as the sum of the integration of the methyl peaks corresponding to EtGH and ethanol (1.0-1.2 ppm) plateaud at a very similar (1198) value to that of the methyl peak at 1.17-1.45 ppm in the block copolymer 21b taken in CDCl3 (integration 1152) when setting the PEG peak integral to 364. The % polymer remaining was calculated as 100−(sum of integration from 1.0-1.2 ppm/1198))*100.

[3] = Nile red encapsulation and triggered release from micelles; details: dissolved in ethanol, same irradiation periods

Row | Compound | To (onset degradation temperature) [1] | Tp (peak degradation temperature) [1] | Hydrolysis to glyoxylic acid and ethanol [2] | Change of fluorescence intensity on irradiation (photostability) [3]
1 | PEtG-co-poly(n-butyl glyoxylate) [Polymer 15] | 208 °C | 236 °C |  | 
2 | poly(benzyl glyoxylate) [Polymer 13] | 195 °C | 229 °C |  | 
3 | CCOC(=O)C=O.O [EtGH, ethyl glyoxylate hydrate] |  |  | ~45% | 
4 | CCN(CC)c1ccc2nc3c4ccccc4c(=O)cc-3oc2c1 [nile red] |  |  |  | no detectable decrease in intensity
5 | PEtG-co-poly(methyl glyoxylate) [Polymer 14] | 181 °C | 203 °C |  | 
